# Experimental data: patent US8236488B2, “Method of screening for therapeutic compounds for vascular disorders and hypertension based on URAT1 activity modulation” (Human Cell Systems, Inc., priority 2003, dated 2012)
# Tests used:
# Assay type in all cases: cell-based
# [1] = system: rat VSMCs; assay: 14C-urate uptake into rat VSMCs in the presence of inhibitors or other organic anions; conditions: 20 μM 14C-urate, 37° C., 5 minutes; for uric acid uptake into VSMCs in the presence of another organic anion: 100, 250 or 500 μM PAH or lactate; for uric acid uptake into VSMCs in the presence of organic anion transporter inhibitor: 0.1, 0.5 or 1 mM probenecid or 0.5, 1 or 10 μM benzbromarone
# Description: Further, the present inventors examined a mechanism of urate uptake under physiologic conditions (polarized conditions). First, the present inventors examined whether ^14C-urate competed with cold urate for uptake. The ^14C-urate uptake level by rat VSMCs was measured at 37° C. for 5 minutes using an uptake solution containing 20 μM ^14C-urate and 0, 0.1, 1, 5, 10, or 50 mg/dL cold urate. Each of the measurement results is the average±standard deviation of three wells. […] In FIG. 2, a vertical axis represents the ratio (%) of ^14C-urate uptake level determined when the ^14C-urate uptake level in the absence of cold urate is defined as 100%. A horizontal axis represents the concentration of cold urate (mg/dL).
# The ^14C-urate uptake level was measured at 37° C. for 5 minutes using an uptake solution containing 20 μM ^14C-urate and 0, 0.1, 0.5 or 1 mM probenecid or 0, 0.5, 1 or 10 μM benzbromarone. Each of the measurement results is the average±standard deviation of three wells. […] In FIGS. 3 and 4, a vertical axis represents the ratio (%) of ^14C-urate uptake level determined when the ^14C-urate uptake level in the absence of probenecid (FIG. 3) or benzbromarone (FIG. 4) is defined as 100%. A horizontal axis in FIG. 3 represents the concentration of probenecid (mM), and a horizontal axis in FIG. 4 represents the concentration of benzbromarone (μM). An asterisk (*) in the FIGS. 3 and 4 indicate that there is a significant difference (p<0.05)
# Further, another test was carried out to examine whether ^14C-urate competed with an organic anion such as para-amino hippurate (PAH) or lactate for uptake. The ^14C-urate uptake level by rat VSMCs was measured at 37° C. for 5 minutes using an uptake solution containing 20 μM ^14C-urate and 0, 100, 250 or 500 μM PAH or 0, 100, 250 or 500 lactate. In addition, the ^14C-urate uptake level by rat VSMCs was also measured using an uptake solution containing 20 μM ^14C-urate and 250 μM uric acid (UA). Each of the measurement results is the average±standard deviation of three wells. […] In FIGS. 5 and 6, a vertical axis represents the ratio (%) of ^14C-urate uptake level determined when the ^14C-urate uptake level in the absence of PAH (FIG. 5) or lactate (FIG. 6) is defined as 100%. A horizontal axis in FIG. 5 represents the concentration of PAH (μM), and a horizontal axis in FIG. 6 represents the concentration of lactate (μM). An asterisk (*) in FIGS. 5 and 6 indicate that there is a significant difference (p<0.05).
# (§1) In the following experiments, vascular smooth muscle cells (VSMCs) derived from rat aorta were used (see Zhang S, Yang Y, et al., Circulation., 2003; 107, 1539-44). These cells were cultured in Dulbecco' s Modified Eagle Medium (DMEM, GIBCO) containing 10% fetal bovine serum (FBS), 1% glutamine, and 1% penicillin/streptomycin solution (100 units/ml penicillin, 100 μg/mL streptomycin; GIBCO). The cultured VSMCs were transferred into wells of a 35-mm six-well culture plate (NUNC), and were then maintained at 37° C. in an atmosphere of 5% carbon dioxide and 95% air in a humidified tissue culture incubator. The culture medium was replaced every 2 days. The VSMCs used in the experiments were 5th to 12th generation cells.
# The VSMCs (4×10^5 cells) were transferred into wells of a six-well culture plate together with 10% FBS-DMEM. After a lapse of one day, the VSMCs were placed in DMEM medium without serum and incubated over night to stop growth. In all the experiments, cells and all the solutions used were maintained at 37° C. […]
# [2] = system: rat VSMCs; assay: VSMC proliferation test (3H-thymidine uptake); conditions: 24 hour incubation; for effect of inhibitor alone on cell proliferation: absence of uric acid
# Description: Next, the present inventors examined whether an inhibitor of organic anion transportation inhibited the response of VSMC proliferation. Proliferation of VSMCs after 24 hour incubation was determined by measuring the ^3H-thymidine uptake level. This test was carried out for cases where no uric acid (UA) was present, 3 mg/dL uric acid (UA) was present, 3 mg/dL uric acid and 0.1, 0.5 or 1 mM probenecid were present, and 3 mg/dL uric acid (UA) and 0.5, 1 or 10 μM benzbromarone were present. In addition, the test was also carried out for cases where probenecid was present alone and benzbromarone was present alone. Each of the measurement results is the average±standard deviation of three wells (CPM). FIGS. 7 and 8 show the result of the test carried out to examine the effect of probenecid (FIG. 7) or benzbromarone (FIG. 8) on inhibition of response of VSMC proliferation. In FIGS. 7 and 8, a vertical axis represents the ^3H-thymidine uptake (CPM) level, a horizontal axis represents the concentration of uric acid or the concentration of an inhibitor.
# as §1
# The VSMCs (4×10^5 cells) were transferred into wells of a six-well culture plate together with 10% FBS-DMEM, and were cultured for 24 hours. Then, the cells were starved for 48 hours in 0.5% FBS-DMEM, and the resting VSMCs were stimulated with 3 mg/dL uric acid containing 1 μCi ^3H-thymidine to detect DNA synthesis. Further, 2 μCi/mL ^3H-thymidine was added to each well 2 hours before harvesting the cells. The cells were washed with ice-cooled PBS three times, and were lysed in 1 mL of 1N NaOH. 0.5 mL of the cell lysate was added to 5 mL of scintillation fluid to measure the ^3H-thymidine uptake level by the cells. The ^3H-thymidine uptake level by the cells was expressed as CMP/well and counted in a liquid scintillation counter. Some experiments were carried out in the presence of different concentrations of probenecid or benzbromarone (organic anion transporter inhibitor).
# [3] = system: MCP-1; assay: ELISA of MCP-1 protein secreted into culture supernatant of rat VSMCs; conditions: 24 hours
# Description: The present inventors have already reported that uric acid induces the production of MCP-1 (see Non-Patent Document 8). The production of MCP-1 in VSMC was examined. Rat VSMCs were cultured for 24 hours, and the amount of MCP-1 secreted into culture supernatant was measured by ELISA. A test was carried out for cases where 3 mg/dL uric acid (UA) was present, 3 mg/dL uric acid and 1 mM probenecid were present, and probenecid was present alone. In FIG. 10, a vertical axis represents the amount of MCP-1 (pg/1000 cells), and a horizontal axis represents cases where nothing was present (No UA), 3 mg/dL uric acid was present (UA), 3 mg/dL uric acid and 1 mM probenecid were present (UA+Prob), and probenecid was present alone (Prob), and two asterisks (**) indicate that there is a significant difference (p<0.05) when compared to a control. […] The VSMCs (5×10^4 cells/well) were placed in wells of a 24-well plate, and serum was deprived after reaching 70% confluence. Then, media with or without 3 mg/dL uric acid was added and the cells were cultured for 24 hours in the presence or absence of 1 mM probenecid. The amount of MCP-1 protein contained in supernatant was measured by ELISA (OptEIA MCP-1 set, BD Pharmingen), and corrected for cell number. Each experiment was repeated three times.
# [4] = system: rat VSMCs; assay: Urate uptake into VSMCs under polarized and depolarized conditions; conditions: 20 μM 14C-urate
# Description: Urate uptake into vascular smooth muscle cells (VSMCs) was examined under polarized and depolarized conditions. The ^14C-urate uptake level by VSMCs was measured using an uptake solution containing 20 μM ^14C-urate under polarized conditions (HEPES-physiological saline solution) or depolarized conditions (100 mM KCl uptake solution) for 120 minutes. The ^14C-urate uptake level was measured every one minute. Each of the measurement results is the average±standard deviation of three wells. In FIG. 1, a vertical axis represents the ^14C-urate uptake (CPM) level, a horizontal axis represents time (min), the symbol “□” represents a case where urate uptake was examined under depolarized conditions, and the symbol “♦” represents a case where urate uptake was examined under polarized conditions. […] It can be known that urate is rapidly taken up by rat VSMCs, that under depolarized conditions, urate uptake reaches steady state within about 15 minutes, and that under polarized conditions, urate uptake reaches steady state within about 30 minutes.
# Further, in still another experiment, urate uptake was examined under polarized or depolarized conditions to determine whether urate uptake was voltage sensitive. The conditions for the experiment were the same as described above except that a culture solution for polarized conditions and a culture solution for depolarized conditions were different. More specifically, after 12 hour starvation, the serum free medium was removed and replaced with 0.45 mL of HEPES-physiological saline solution (PSS) containing 140 mM NaCl, 4 mM KCl, 2 mMCaCl2, 1 mM MgCl2, 5 mM glucose, and 16 mM HEPES-tris (pH 7.4) for polarized conditions, or 100 mM-KCl uptake solution containing 44 mM NaCl, 100 mM KCl, 2 mM CaCl2, 1 mM MgCl2, 5 mM glucose, and 16 mM HEPES-tris (pH 7.4) for depolarized conditions.
smiles,measurement,setting,value
"Nc1ccc(C(=O)NCC(=O)O)cc1 [PAH, para-amino hippurate]",uric acid uptake into VSMCs in the presence of another organic anion,[1],inhibited
CCc1oc2ccccc2c1C(=O)c1cc(Br)c(O)c(Br)c1 [benzbromarone],effect of inhibitor alone on cell proliferation,[2],The same was observed
same,uric acid uptake into VSMCs in the presence of organic anion transporter inhibitor,[1],concentration-dependently reduced
CC(O)C(=O)O (centres unmarked) [lactate],uric acid uptake into VSMCs in the presence of another organic anion,[1],more weakly inhibited
CCCN(CCC)S(=O)(=O)c1ccc(C(=O)O)cc1 [probenecid],uric acid-induced increase in the 3H-thymidine uptake level (VSMC proliferation),[2]; 3 mg/dL uric acid plus inhibitor,concentration-dependently inhibited
same,effect of inhibitor alone on cell proliferation,[2],little effect on cell proliferation
same,uric acid uptake into VSMCs in the presence of organic anion transporter inhibitor,[1],concentration-dependently reduced
same,increase in uric acid-induced production of MCP-1,[3]; 3 mg/dL uric acid and 1 mM probenecid,inhibited
same,production of MCP-1 with inhibitor alone,"[3]; probenecid alone, no uric acid",not inhibited
O=c1[nH]c(=O)c2[nH]c(=O)[nH]c2[nH]1 [uric acid],3H-thymidine uptake level by rat VSMCs,[2]; 3 mg/dL uric acid,increased
same,competition between 14C-urate and cold urate for uptake by rat VSMCs,"[1]; 0.1, 1, 5, 10 or 50 mg/dL cold urate",more effectively competed
same,"urate uptake level, depolarized versus polarized conditions",[4]; up to 120 minutes,larger under depolarized conditions than under polarized conditions
same,time until urate uptake reaches steady state,[4]; depolarized conditions (100 mM KCl uptake solution),≤ 15 min
same,time until urate uptake reaches steady state,[4]; polarized conditions (HEPES-physiological saline solution),≤ 30 min
